The values that follow come from patent US4563468A, “Chemotherapeutic agents” (Burroughs Wellcome Co., priority 1979, dated 1986).

In experiment [1] the test system is rhinovirus. The experiment is described as follows: plaque reduction (PR) test. The class given is cell-based. The settings on record: Enterovirus; 50% of the effective dose estimated from dose response curve; plaque numbers as percentages of a control; monolayer cell culture, compound in nutrient agarose overlay; read-out: PR(ED50). As for the experimental part:
Activity may be detected by the plaque inhibition (PI) test and measured by the plaque reduction (PR) test. Both assays involve the formation of a monolayer cell culture in a petri dish followed by infection with a virus suspension, and then overlaying the culture with nutrient agarose in the form of a gel. This gel ensures that there is no spread of virus throughout the culture and thus areas of localised cell destruction or plaques are formed. Detectable activity is measured with the plaque reduction assay. A range of concentrations of compound of known molarity are incorporated in the nutrient agarose overlay. Plaque suppression is proportional to compound concentration. Plaque numbers are expressed as percentages of a control, and a dose response curve may be drawn. From this curve 50% of the effective dose (ED50) may be estimated.

Experiment [2] relates to rhinovirus. The experiment is described as follows: Intranasal Administration-Simulation in vitro (plaque inhibition, compound on petri dish lid). The class given is cell-based. Particulars: 1 μg in ethanol applied to petri dish lids, ethanol evaporated; cell sheet covered with agarose gel. The text has this: Activity may be detected by the plaque inhibition (PI) test and measured by the plaque reduction (PR) test. Both assays involve the formation of a monolayer cell culture in a petri dish followed by infection with a virus suspension, and then overlaying the culture with nutrient agarose in the form of a gel. This gel ensures that there is no spread of virus throughout the culture and thus areas of localised cell destruction or plaques are formed. In the plaque inhibition test a filter paper disc which holds 0.01 ml when impregnated with a solution of compound is placed on top of the agarose gel. The compound may then diffuse throughout the gel so that its greatest concentration will be around the disc and its lowest concentration towards the periphery of the petri dish. The efficacy of the compound may be detected by observing the zone of inhibition of plaque formation. Petri dishes were prepared, as for the plaque inhibition test and the confluent sheet of cells was covered with a layer of agarose gel. The compound, 2-(3-pyridyl)chroman (1 μg) was dissolved in ethanol, and applied to the lids of the petri dishes. When the ethanol had evaporated, leaving the compound spread over the inside of the lids, these were replaced on the petri dishes.

Take `[O-][n+]1cccc(C2CCc3ccccc3O2)c1` (racemic) [2-(3-pyridyl)chroman N--oxide, 2-(3-pyridyl)chroman N-oxide]: the EC50 in the experiment with rhinovirus [1] is 1100 nM.

`c1cncc(C2CCc3ccccc3O2)c1` (stereo not shown) [2-(3-pyridyl)chroman]: in the experiment with rhinovirus [1], the EC50 was 390 nM. Besides, the “inhibition of plaque formulation” value with rhinovirus [2] is “total inhibition”.

Take `Clc1ccc2c(c1)CCC(c1cccnc1)O2` (stereo not shown) [6-chloro-2-(3-pyridyl)chroman]: the EC50 in the experiment on rhinovirus [1] is 42 nM.
